Data as given in US11806354B2 (priority 2017, dated 2023).
Like-named read-outs stand apart in the source and are kept apart here.

Columns and labels:
[1] = Dissolution testing of monolayer meloxicam/rizatriptan tablet in acidic medium (Example 4); type: physicochemical; conditions: 0.01 N HCl
Source text: The inclusion complex was the same as the inclusion complex of Example 3.

[2] = human beings, 15 mg intramuscular dose; cited from earlier work
[3] = Description: The effect of varying amounts of potassium carbonate (K2CO3) and sodium bicarbonate (NaHCO3) on the pH of acidic media was tested. The acidic media was chosen to simulate gastric conditions. K2CO3 or NaHCO3 was added to 50 mL of a 0.01 N HCl solution (pH 2). The pH of the solution was measured after addition of the K2CO3 or NaHCO3. Deionized water (240 mL) was then added to the mixture and pH was measured again.
migraine patients = experiment: Phase 3 placebo- and active-controlled trial, acute treatment of moderate and severe migraine (Example 11); type: in vivo, human
Source text: Exclusion criteria included cluster headaches or other types of migraines, chronic daily headache (≥15 non-migraine headache days per month), history of significant cardiovascular disease, and uncontrolled hypertension.

[4] = monolayer tablet of Example 4, 0 min, 75 RPM, 37° C
[5] = monolayer tablet of Example 4, 15 min
[6] = monolayer tablet of Example 4, 30 min
[7] = monolayer tablet of Example 4, 45 min
[8] = monolayer tablet of Example 4, 60 min
[9] = monolayer tablet of Example 4, 90 min
[10] = monolayer tablet of Example 4, 120 min

Structure (SMILES): Cc1cnc(NC(=O)C2=C(O)c3ccccc3S(=O)(=O)N2C)s1 [Meloxicam]
- percent dissolved [1, 4]: 0%
- percent dissolved [1, 5]: 79%
- percent dissolved [1, 6]: 92%
- percent dissolved [1, 7]: 93%
- percent dissolved [1, 8]: 93%
- percent dissolved [1, 9]: 93%
- percent dissolved [1, 10]: 94%
- AUC0-24 of meloxicam [2]: about 27 μg·hr/mL

Structure (SMILES): O=C([O-])O.[Na+] [NaHCO3, sodium bicarbonate]
- pH ([3]; 300 mg added to 50 mL 0.01 N HCl): 5.90
- pH ([3]; 750 mg added to 50 mL 0.01 N HCl): 8.30
- pH ([3]; 1000 mg, 0.01 N HCl + 240 mL water): 8.60

Structure (SMILES): CN(C)CCc1c[nH]c2ccc(Cn3cncn3)cc12 [Rizatriptan]
- percent dissolved [1, 4]: 0%
- percent dissolved [1, 5]: 89%
- percent dissolved [1, 6]: 102%
- percent dissolved [1, 7]: 103%
- percent dissolved [1, 8]: 103%
- percent dissolved [1, 9]: 103%
- percent dissolved [1, 10]: 103%
- patients experiencing relapse of pain (migraine patients; 48-hour period after dosing): 45.2%
- percentage of patients with sustained pain freedom (migraine patients; 2 hours to 48 hours): 8.8%
- probability of experiencing pain relief (migraine patients; 24 hours after taking): approximately 60%
- Any Treatment-Emergent Adverse Event, number of subjects (migraine patients; in vivo): 67
- Dizziness, % of subjects (migraine patients; in vivo): 2.1%
- Dizziness, number of subjects (migraine patients; in vivo): 9
- Nausea, % of subjects (migraine patients; in vivo): 4.8%
- Nausea, number of subjects (migraine patients; in vivo): 21
- Somnolence, % of subjects (migraine patients; in vivo): 2.1%
- Somnolence, number of subjects (migraine patients; in vivo): 9
- median time to pain relief (migraine patients; in vivo): 4 h
